# Laboratory results reported in patent US12552783B2, “Modulators of proteolysis and associated methods of use” (Arvinas Operations, Inc., priority 2018, dated 2026).
# Molecular target: KRas (Homo sapiens, UniProt P01116, G12C)
# Test: KRas degradation in NCI-H2030 cells by Western blot, normalized to GAPDH (data of Table 14)
# Assay type: cell-based
# Set-up: host or cells: NCI-H2030
# Details: for Percent Degradation at Indicated Concentration (μM): H2030; for Dmax: NCI-H2030
# Outline: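 Readout: GAPDH-normalized KRas immunoblot signal, expressed as percent degradation versus 0.1% DMSO vehicle. Treatment: 0.3, 1, 3 μM after 24 h starvation; 24 h (VHL-based) or 72 h (others).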
SMILES,Percent Degradation at Indicated Concentration (μM) (0.3 μM),Percent Degradation at Indicated Concentration (μM) (1 μM),Percent Degradation at Indicated Concentration (μM) (3 μM),Dmax [%]
"CC(=O)N1CCN(c2nc(NCCC(=O)N(C)CCOCCOCC(=O)N[C@H](C(=O)N3C[C@H](O)C[C@H]3C(=O)N[C@@H](C)c3ccc(-c4scnc4C)cc3)C(C)(C)C)nc3c(F)c(-c4cc(O)cc5ccccc45)c(Cl)cc23)CC1 [compound 201, (2S,4R)-1-((2S)-15-((4-(4-acetylpiperazin-1-yl)-6-chloro-8-fluoro-7-(3-hydroxynaphthalen-1-yl)quinazolin-2-yl)amino)-2-(tert-butyl)-12-methyl-4,13-dioxo-6,9-dioxa-3,12-diazapentadecanoyl)-4-hydroxy-N-((S)-1-(4-(4-methylthiazol-5-yl)phenyl)ethyl)pyrrolidine-2-carboxamide]",C (Percent Degradation: C ≤ 35),C (Percent Degradation: C ≤ 35),C (Percent Degradation: C ≤ 35),≤ 35
"CC(=O)N1CCN(c2nc(NCCC(=O)N(C)CCOCCOCCOCC(=O)N[C@H](C(=O)N3C[C@H](O)C[C@H]3C(=O)N[C@@H](C)c3ccc(-c4scnc4C)cc3)C(C)(C)C)nc3c(F)c(-c4cc(O)cc5ccccc45)c(Cl)cc23)CC1 [compound 202, (2S,4R)-1-((2S)-18-((4-(4-acetylpiperazin-1-yl)-6-chloro-8-fluoro-7-(3-hydroxynaphthalen-1-yl)quinazolin-2-yl)amino)-2-(tert-butyl)-15-methyl-4,16-dioxo-6,9,12-trioxa-3,15-diazaoctadecanoyl)-4-hydroxy-N-((S)-1-(4-(4-methylthiazol-5-yl)phenyl)ethyl)pyrrolidine-2-carboxamide]",C (Percent Degradation: C ≤ 35),C (Percent Degradation: C ≤ 35),C (Percent Degradation: C ≤ 35),≤ 35
"CC(=O)N1CCN(c2nc(NCCC(=O)N(C)CCOCCOCCOCCOCCOCC(=O)N[C@H](C(=O)N3C[C@H](O)C[C@H]3C(=O)N[C@@H](C)c3ccc(-c4scnc4C)cc3)C(C)(C)C)nc3c(F)c(-c4cc(O)cc5ccccc45)c(Cl)cc23)CC1 [compound 204, (2S,4R)-1-((2S)-24-((4-(4-acetylpiperazin-1-yl)-6-chloro-8-fluoro-7-(3-hydroxynaphthalen-1-yl)quinazolin-2-yl)amino)-2-(tert-butyl)-21-methyl-4,22-dioxo-6,9,12,15,18-pentaoxa-3,21-diazatetracosanoyl)-4-hydroxy-N-((S)-1-(4-(4-methylthiazol-5-yl)phenyl)ethyl)pyrrolidine-2-carboxamide]",C (Percent Degradation: C ≤ 35),C (Percent Degradation: C ≤ 35),C (Percent Degradation: C ≤ 35),≤ 35
"C=CC(=O)N1CCN(c2nc(NCCC(=O)N(C)CCOCCOCCOCCOCCOCC(=O)N[C@H](C(=O)N3C[C@H](O)C[C@H]3C(=O)N[C@@H](C)c3ccc(-c4scnc4C)cc3)C(C)(C)C)nc3c(F)c(-c4c(O)cccc4F)c(Cl)cc23)CC1 [compound 214, (2S,4R)-1-((S)-24-(((R)-4-(4-acryloylpiperazin-1-yl)-6-chloro-8-fluoro-7-(2-fluoro-6-hydroxyphenyl)quinazolin-2-yl)amino)-2-(tert-butyl)-21-methyl-4,22-dioxo-6,9,12,15,18-pentaoxa-3,21-diazatetracosanoyl)-4-hydroxy-N-((S)-1-(4-(4-methylthiazol-5-yl)phenyl)ethyl)pyrrolidine-2-carboxamide]",C (Percent Degradation: C ≤ 35),C (Percent Degradation: C ≤ 35),C (Percent Degradation: C ≤ 35),≤ 35
"C=CC(=O)N1CCN(c2nc(NCCC(=O)N(C)CCOCCOCCN3CCN(CC(=O)N[C@H](C(=O)N4C[C@H](O)C[C@H]4C(=O)N[C@@H](C)c4ccc(-c5scnc5C)cc4)C(C)(C)C)CC3)nc3c(F)c(-c4cc(O)cc5ccccc45)c(Cl)cc23)CC1 [compound 249, (2S,4R)-1-((2S)-2-(2-(4-(2-(2-(2-(3-((4-(4-acryloylpiperazin-1-yl)-6-chloro-8-fluoro-7-(3-hydroxynaphthalen-1-yl)quinazolin-2-yl)amino)-N-methylpropanamido)ethoxy)eth-oxy)ethyl)piperazin-1-yl)acetamido)-3,3-dimethylbutanoyl)-4-hydroxy-N-((S)-1-(4-(4-methylthiazol-5-yl)phenyl)ethyl)pyrrolidine-2-carboxamide]",C (Percent Degradation: C ≤ 35),C (Percent Degradation: C ≤ 35),C (Percent Degradation: C ≤ 35),≤ 35
"CN[C@@H](C)C(=O)N[C@H](C(=O)N1CCC[C@H]1c1nc(-c2ccc(OCCOCCOCCOCCN(C)C(=O)CCNc3nc(N4CCN(C(C)=O)CC4)c4cc(Cl)c(-c5cc(O)cc6ccccc56)c(F)c4n3)c3ccccc23)cs1)C1CCCCC1 [compound 268, 3-((4-(4-acetylpiperazin-1-yl)-6-chloro-8-fluoro-7-(3-hydroxynaphthalen-1-yl)quinazolin-2-yl)amino)-N-(2-(2-(2-(2-((4-(2-((S)-1-((S)-2-cyclohexyl-2-((S)-2-(methylamino)propan-amido)acetyl)pyrrolidin-2-yl)thiazol-4-yl)naphthalen-1-yl)oxy)ethoxy)ethoxy)eth-oxy)ethyl)-N-methylpropanamide]",C (Percent Degradation: C ≤ 35),C (Percent Degradation: C ≤ 35),C (Percent Degradation: C ≤ 35),≤ 35
"CN[C@@H](C)C(=O)N[C@H](C(=O)N1CCC[C@H]1c1nc(-c2ccc(OCCOCCOCCOCCOCCN(C)C(=O)CCNc3nc(N4CCN(C(C)=O)CC4)c4cc(Cl)c(-c5cc(O)cc6ccccc56)c(F)c4n3)c3ccccc23)cs1)C1CCCCC1 [compound 269, 3-((4-(4-acetylpiperazin-1-yl)-6-chloro-8-fluoro-7-(3-hydroxynaphthalen-1-yl)quinazolin-2-yl)amino)-N-(14-((4-(2-((S)-1-((S)-2-cyclohexyl-2-((S)-2-(methylamino)propan-amido)acetyl)pyrrolidin-2-yl)thiazol-4-yl)naphthalen-1-yl)oxy)-3,6,9,12-tetraoxatetradecyl)-N-methylpropanamide]",C (Percent Degradation: C ≤ 35),C (Percent Degradation: C ≤ 35),C (Percent Degradation: C ≤ 35),≤ 35
"C=CC(=O)N1CCN(c2nc(NCCC(=O)N(C)CCOCCOc3ccc(-c4csc([C@@H]5CCCN5C(=O)[C@@H](NC(=O)[C@H](C)NC)C5CCCCC5)n4)c4ccccc34)nc3c(F)c(-c4cc(O)cc5ccccc45)c(Cl)cc23)CC1 [compound 271, 3-((4-(4-acryloylpiperazin-1-yl)-6-chloro-8-fluoro-7-(3-hydroxynaphthalen-1-yl)quinazolin-2-yl)amino)-N-(2-(2-((4-(2-((S)-1-((S)-2-cyclohexyl-2-((S)-2-(methylamino)propan-amido)acetyl)pyrrolidin-2-yl)thiazol-4-yl)naphthalen-1-yl)oxy)ethoxy)ethyl)-N-methylpropanamide]",C (Percent Degradation: C ≤ 35),C (Percent Degradation: C ≤ 35),C (Percent Degradation: C ≤ 35),≤ 35
